Converted amounts (≈) assume the structure as drawn. Like-named read-outs stand apart in the source and are kept apart here. Positions of bridges follow the written chain, without caps; N, C: chain ends. Non-standard residues stand in square brackets, D forms with d. Residues, ends and D or L forms follow the SMILES beside them. *: point of attachment. Butanoyl(4-OPh) = O=C(CCCOc1ccccc1)*; X1 = CCCCCCCN1CCC(C(=O)*)CC1; X7 = CCC(C)CCCCC(O)CC(=O)*; dDab = NCC[C@@H](N)C(=O)O; Dab = NCC[C@H](N)C(=O)O
Tests used:
in vitro [1] = conditions: human
How it was run: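 Fluorescence read-out (excitation 560, emission 590) after a 2 h, 37 °C incubation with 5 μM resazurin, following 24 h compound treatment of cells plated at 4000 per well. CC50 values come from fitting dose–response curves of growth inhibition.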

in vitro [2] = conditions: human; remark: listed apart in the source
How it was run: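 HK2 cells were seeded at 2000 per well in DMEM/F12 with 10% FBS and left to attach for 24 h at 37 °C, 5% CO2. They were then exposed for 24 h to 3-fold peptide dilutions starting from 600 μM solutions in quadruplicate. LDH release was read at 450 nm, and CC50 was fitted from dose-response curves.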

in vitro [3] = conditions: human; remark: listed apart in the source
Method: Cytotoxicity of the synthesised peptides was evaluated by comparison with commercially available colistin (polymyxin E), polymyxin B (Sigma chemical Co., St. Louis, Mo., U.S.A.) and synthetic octapeptin C4 by conducting lactate dehydrogenase (LDH) assay. CC50 values calculated based on curve fitting of dose dependent inhibition of cell growth represented the cytotoxicity of the peptide. Human kidney 2 (HK2) cells were seeded as 2000 cells per well in a 384 well cell culture plate in a final volume of 20 μL in DMEM/F12 medium (Invitrogen #11330057), in which 10% of FBS was added. Cells were incubated for 24 hours at 37° C., 5% CO2 to allow cells to attach to the plates. Similar conditions were employed for HEK293 and HepG2 cytotoxicity assays.
Cytotoxicity to HEK293 and HepG2 cells was determined using the resazurin assay (McMillian, M. K.; Li, L.; Parker, J. B.; Patel, L.; Zhong, Z.; Gunnett, J. W.; Powers, W. J.; Johnson, M. D. An improved resazurin-based cytotoxicity assay for hepatic cells; Cell Biol. Toxicol. 2002, 18, 157-173; O'Brien, J.; Wilson, I.; Orton, T.; Pognan, F. Investigation of the Alamar Blue (resazurin) fluorescent dye for the assessment of mammalian cell cytotoxicity. Eur. J. Biochem. 2000, 267, 5421-5426). In brief, HEK293 and HepG2 cells were seeded at 4000 cells/well in black-wall, clear-bottom 384-well plates (Corning, Australia) and incubated for 24 h at 37° C., 5% CO2. Compounds were then added into each well. After 24 h incubation, 5 μM resazurin was added per well and incubated at 37° C. for 2 h. Fluorescence intensity was then read using a Polarstar Omega with excitation/emission 560/590. The data was then analyzed using GraphPad Prism 6 software. CC50 values were determined using GraphPad Prism 6 software (Inc. La Jolla, Calif.).

A. baumannii ATCC 19606 = test system: A. baumannii ATCC 19606
How it was run: (§1)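 Mid-log cultures grown in Mueller Hinton broth at 37° C were tested by 2-fold broth microdilution at 5×10^5 CFU/mL final. Compounds were dissolved in water and tested over a final range of 32 to 0.015 μg/mL.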

[4] = test system: K. pneumoniae ATCC BAA-2146, NDM-1 pos
How it was run: as §1

[5] = test system: K. pneumoniae GN_106, PmxR
How it was run: as §1

[6] = test system: K. pneumoniae GN_102 PmxR
How it was run: as §1

[7] = test system: K. pneumoniae ATCC 700603, MDR
How it was run: as §1

E. coli ATCC 25922 = test system: E. coli ATCC 25922
How it was run: as §1

P. aeruginosa ATCC 27853 = test system: P. aeruginosa ATCC 27853
How it was run: as §1

A. baumannii GN_093 PmxR = test system: A. baumannii GN_093 PmxR
How it was run: as §1

K. pneumoniae ATCC 13883 = test system: K. pneumoniae ATCC 13883
How it was run: as §1

[8] = test system: S. aureus ATCC 25923, MSSA
How it was run: as §1

[9] = test system: P. aeruginosa GN_043, PmxR
How it was run: as §1

[10] = test system: P. aeruginosa GN_105, PmxR
How it was run: as §1

CCCCCCCN1CCC(C(=O)N[C@H](CCN)C(=O)N[C@H]2CCNC(=O)[C@H](CC(C)C)NC(=O)[C@H](CCN)NC(=O)[C@H](CCN)NC(=O)[C@H](CC(C)C)NC(=O)[C@@H](Cc3ccccc3)NC(=O)[C@H](CCN)NC2=O)CC1 [compound 6524, 1-heptylpiperidine-4-carboxylic acid-D-Dab-cyc[L-Dab-L-Dab-D-Phe-L-Leu-L-Dab-L-Dab-L-Leu]] (X1-[dDab][Dab][Dab][dF]L[Dab][Dab]L; lactam 2-C)
CC50 at 24 h (in vitro [1]): > 300 µM
CC50 at 24 h (in vitro [2]): 106 µM
CC50 at 24 h (in vitro [3]): > 300 µM
MIC A. baumannii ATCC 19606 (A. baumannii ATCC 19606): >32 µg/mL
MIC K. pneumoniae ATCC BAA-2146, NDM-1 pos [4]: 32 µg/mL (≈ 29.5 µM)
MIC K. pneumoniae GN_106, PmxR ([5]; GN 106, PmxR): 32 µg/mL (≈ 29.5 µM)
MIC K. pneumoniae GN_102 PmxR ([6]; GN 102 PmxR): >32 µg/mL
MIC K. pneumoniae ATCC 700603, MDR [7]: >32 µg/mL
MIC E. coli ATCC 25922 (E. coli ATCC 25922): 32 µg/mL (≈ 29.5 µM)
MIC P. aeruginosa ATCC 27853 (P. aeruginosa ATCC 27853): 1 µg/mL (≈ 0.923 µM)
MIC A. baumannii GN_093 PmxR (A. baumannii GN_093 PmxR; GN 093 PmxR): >32 µg/mL
MIC K. pneumoniae ATCC 13883 (K. pneumoniae ATCC 13883): >32 µg/mL
MIC S. aureus ATCC 25923, MSSA [8]: 32 µg/mL (≈ 29.5 µM)
MIC P. aeruginosa GN_043, PmxR [9]: 0.5 µg/mL (≈ 0.461 µM)
MIC P. aeruginosa GN_105, PmxR ([10]; GN 105, PmxR): 2 µg/mL (≈ 1.85 µM)

CCC(C)CCCCC(O)CC(=O)N[C@@H](CCN)C(=O)N[C@H]1CCNC(=O)[C@H](CC(C)C)NC(=O)[C@H](CCN)NC(=O)[C@H](CCN)NC(=O)[C@H](CC(C)C)NC(=O)[C@@H](Cc2ccccc2)NC(=O)[C@H](CCN)NC1=O (stereo partly drawn) [compound 5567, nC7(8-Me)CH(OH)CH2CO-L-Dab-cyc[L-Dab-L-Dab-D-Phe-L-Leu-L-Dab-L-Dab-L-Leu]] (X7-[Dab][Dab][Dab][dF]L[Dab][Dab]L; lactam 2-C)
CC50 at 24 h (in vitro [1]): 292 µM
CC50 at 24 h (in vitro [2]): 54 µM
CC50 at 24 h (in vitro [3]): 150 µM
MIC, A. baumannii ATCC 19606 (A. baumannii ATCC 19606; Table 6): 8 µg/mL (≈ 7.56 µM)
MIC, K. pneumoniae ATCC BAA-2146, NDM-1 pos ([4]; Table 6): 8 µg/mL (≈ 7.56 µM)
MIC K. pneumoniae GN_106, PmxR ([5]; Table 6, polymyxin-resistant): 4 µg/mL (≈ 3.78 µM)
MIC K. pneumoniae GN_102 PmxR ([6]; Table 6, polymyxin-resistant): 8 µg/mL (≈ 7.56 µM)
MIC, K. pneumoniae ATCC 700603, MDR ([7]; Table 6): 8 µg/mL (≈ 7.56 µM)
MIC, E. coli ATCC 25922 (E. coli ATCC 25922; Table 6): 8 µg/mL (≈ 7.56 µM)
MIC, P. aeruginosa ATCC 27853 (P. aeruginosa ATCC 27853; Table 6): 2 µg/mL (≈ 1.89 µM)
MIC A. baumannii GN_093 PmxR (A. baumannii GN_093 PmxR; Table 6, polymyxin-resistant): 16 µg/mL (≈ 15.1 µM)
MIC, K. pneumoniae ATCC 13883 (K. pneumoniae ATCC 13883; Table 6): 8 µg/mL (≈ 7.56 µM)
MIC, S. aureus ATCC 25923, MSSA ([8]; Table 6): 32 µg/mL (≈ 30.2 µM)
MIC P. aeruginosa GN_043, PmxR ([9]; Table 6, polymyxin-resistant): 2 µg/mL (≈ 1.89 µM)
MIC P. aeruginosa GN_105, PmxR ([10]; Table 6, polymyxin-resistant): 2 µg/mL (≈ 1.89 µM)

CC(C)C[C@@H]1NC(=O)[C@H](CCN)NC(=O)[C@H](CCN)NC(=O)[C@H](CC(C)C)NC(=O)[C@@H](Cc2ccccc2)NC(=O)[C@H](CCN)NC(=O)[C@@H](NC(=O)[C@@H](CCN)NC(=O)CCCOc2ccccc2)CCNC1=O [compound 6529, 4-phenoxybutanoic acid-D-Dab-cyc[L-Dab-L-Dab-D-Phe-L-Leu-L-Dab-L-Dab-L-Leu]] ({Butanoyl(4-OPh)}-[dDab][Dab][Dab][dF]L[Dab][Dab]L; lactam 2-C)
CC50 at 24 h (in vitro [1]): > 300 µM
CC50 at 24 h (in vitro [2]): 199 µM
CC50 at 24 h (in vitro [3]): > 300 µM
MIC A. baumannii ATCC 19606 (A. baumannii ATCC 19606): >32 µg/mL
MIC K. pneumoniae ATCC BAA-2146, NDM-1 pos [4]: 32 µg/mL (≈ 30.9 µM)
MIC K. pneumoniae GN_106, PmxR ([5]; GN 106, PmxR): >32 µg/mL
MIC K. pneumoniae GN_102 PmxR ([6]; GN 102 PmxR): >32 µg/mL
MIC K. pneumoniae ATCC 700603, MDR [7]: 32 µg/mL (≈ 30.9 µM)
MIC E. coli ATCC 25922 (E. coli ATCC 25922): 8 µg/mL (≈ 7.72 µM)
MIC P. aeruginosa ATCC 27853 (P. aeruginosa ATCC 27853): 2 µg/mL (≈ 1.93 µM)
MIC A. baumannii GN_093 PmxR (A. baumannii GN_093 PmxR; GN 093 PmxR): >32 µg/mL
MIC K. pneumoniae ATCC 13883 (K. pneumoniae ATCC 13883): 16 µg/mL (≈ 15.4 µM)
MIC S. aureus ATCC 25923, MSSA [8]: >32 µg/mL
MIC P. aeruginosa GN_043, PmxR [9]: 1 µg/mL (≈ 0.965 µM)
MIC P. aeruginosa GN_105, PmxR ([10]; GN 105, PmxR): 16 µg/mL (≈ 15.4 µM)

Source: US11279733B2, “Peptide antibiotics” (priority 2017, dated 2022)
